Assay results as given in EP0463456A1, “Phosphorus-containing HMG-CoA reductase inhibitors, new intermediates and their use” (E.R. SQUIBB & SONS, INC., priority 1990, dated 1992).

Biological target: T1, Rat hepatic HMG-CoA reductase (Rattus norvegicus, UniProt P51639)
T1 construct: Livers are removed from 2-4 cholestyramine-fed, decapitated, Sprague Dawley rats, and homogenized in phosphate buffer A; from tissue; host or cells: liver microsomes of cholestyramine-fed Sprague Dawley rats
T1 sequence (P51639 1-887): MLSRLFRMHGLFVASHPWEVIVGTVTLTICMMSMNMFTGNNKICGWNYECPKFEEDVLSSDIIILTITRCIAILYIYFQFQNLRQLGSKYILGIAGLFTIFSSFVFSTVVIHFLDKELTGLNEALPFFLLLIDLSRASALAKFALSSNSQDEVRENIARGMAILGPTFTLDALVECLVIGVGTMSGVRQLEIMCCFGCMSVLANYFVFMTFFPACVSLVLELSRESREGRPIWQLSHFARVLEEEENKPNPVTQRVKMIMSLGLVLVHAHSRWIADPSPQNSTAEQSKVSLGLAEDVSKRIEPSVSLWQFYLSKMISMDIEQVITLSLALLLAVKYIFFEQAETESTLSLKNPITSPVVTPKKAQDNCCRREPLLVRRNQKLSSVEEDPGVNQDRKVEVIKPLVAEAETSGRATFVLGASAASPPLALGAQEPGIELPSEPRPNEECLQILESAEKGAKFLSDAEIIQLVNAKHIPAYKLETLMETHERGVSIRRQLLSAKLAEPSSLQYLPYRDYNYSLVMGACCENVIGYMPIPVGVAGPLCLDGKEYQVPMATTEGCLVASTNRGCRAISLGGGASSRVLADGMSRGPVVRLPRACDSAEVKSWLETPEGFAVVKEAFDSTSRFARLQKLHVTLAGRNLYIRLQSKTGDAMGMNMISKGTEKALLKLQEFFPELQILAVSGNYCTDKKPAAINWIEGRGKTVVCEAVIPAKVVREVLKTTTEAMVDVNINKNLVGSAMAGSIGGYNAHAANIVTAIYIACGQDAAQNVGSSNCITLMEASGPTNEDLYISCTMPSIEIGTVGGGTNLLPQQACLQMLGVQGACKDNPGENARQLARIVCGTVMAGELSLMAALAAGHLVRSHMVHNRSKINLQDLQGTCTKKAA
Experiment: Rat Hepatic HMG-CoA Reductase test (conversion of 14C-HMG-CoA to 14C-mevalonic acid by rat hepatic microsomes)
Format: biochemical
Details: concentration producing 50% inhibition of enzyme activity, 100 µM HMG-CoA, 20 minutes at 37° C, read-out: Reductase 150
Method: 1) Rat Hepatic HMG-CoA Reductase
Rat hepatic HMG-CoA reductase activity is measured using a modification of the method described by Edwards (Edwards, P.A., et al., J. Lipid Res. 20:40, 1979). Rat hepatic microsomes are used as a source of enzyme, and the enzyme activity is determined by measuring the conversion of the ^14C-HMG-CoA substrate to 14C-mevalonic acid.
a. Preparation of Microsomes
Livers are removed from 2-4 cholestyramine-fed, decapitated, Sprague Dawley rats, and homogenized in phosphate buffer A (potassium phosphate, 0.04 M, pH 7.2; KCI, 0.05 M; sucrose, 0.1 M; EDTA, 0.03 M; aprotinin, 500 KI units/ml). The homogenate is spun at 16,000 x g for 15 minutes at 4°C. The supernatant is removed and recentrifuged under the same conditions a second time. The second 16,000 x g supernatant is spun at 100,000 x g for 70 minutes at 4° C. Pelleted microsomes are resuspended in a minimum volume of buffer A (3-5 ml per liver), and homogenized in a glass/glass homogenizer. […]
Standardized assays for the evaluation of inhibitors are conducted according to the following procedure. […] The first 0.5 ml is discarded, and the next 1.5 ml is collected and counted for both tritium and carbon 14 in 10.0 ml Opti-fluor scintillation fluid. Results are calculated as nmoles mevalonic acid produced per 20 minutes, and are corrected to 100% recovery of tritium. […]

- IC50: 600 pM
Substance: (S)-4-[[[4-(4-Fluorophenyl)-1,2-bis(1-methylethyl)-5-phenyl-1H-pyrrol-3-yl]-ethynyl]hydroxyphosphinyl]-3-hydroxybutanoic acid, dilithium salt [SQ 34,346]
